Tested on: corn seed excised explants
Assay: Agrobacterium-mediated transformation and shoot/plant regeneration of corn seed excised explants (shoot frequency, normal shoot frequency, normal plant frequency)
Assay type: cell-based
Method: The shoot frequency was calculated as the number of inoculated explants producing shoots divided by the total number of inoculated explants.
The shoot frequency was calculated as the number of inoculated explants producing shoots divided by the total number of inoculated explants. […] The normal shoot frequency was calculated as the number of normal shoots divided by the total number of inoculated explants.

**Q.** What does the source list for `O=C(O)COc1ccc(Cl)cc1Cl` [2,4-D, 2,4-dichlorophenoxyacetic acid]?
**A.** average normal plant frequency when 2,4-D was present in co-culture medium (4 and 5 day co-culture combined): 0.73%; average normal plant frequency (%), 2,4-D Present in Co-Culture (co-culture 4 days): 0.85%; average normal plant frequency (%), 2,4-D Present in Co-Culture (co-culture 5 days): 0.5%; Fold Increase in normal plant frequency without 2,4-D versus with 2,4-D, overall/average (co-culture medium, 17 experiments): 1.8

— US20250376691A1, “FLOTATION OF CULTURED EMBRYO EXPLANTS FOR IMPROVED PLANT REGENERATION EFFICIENCY” (Monsanto Technology LLC, priority 2022, published 2025)
